Publication PMC9775153, “Portability of a Small-Molecule Binding Site between Disordered Proteins” (Biomolecules, 2022)

What was measured:
P21 Max [1] = biological target: T1, P21 Max (Homo sapiens, UniProt P61244); test: Tyrosine fluorescence quenching titration; assay type: binding; settings: 1 µM P21 Max, pH 7.4
T1 construct: 6xHis tag + TEV site (N, cleaved yes); made in house; host or cells: E. coli BL21(DE3) pLysS
Description: (§1) The lyophilized protein (or peptide) was reconstituted in ultrapure water and incubated to room temperature for at least 1 hr. The protein or peptide was then sterile filtered using a pre-wet 0.2 μm polyethylene sulfone (PES) filter (VWR), and the concentration was determined by the absorbance at 274 nm using the extinction coefficient per tyrosine of ε274 = 1470 M^−1cm^−1. The final stock concentrations ranged from 50 to 100 μM.
(§2) For excess 34RH tyrosine fluorescence quenching experiments, samples were prepared with the following buffer components: sterile filtered water, 1xPBS (137 mM NaCl, 2.7 mM KCl, 4.3 mM Na2HPO4, 1.4 mM KH2PO4), and 5% total DMSO. The pH of the buffer was adjusted to 6 or 7.4 depending on the experiment performed. Three separate samples were prepared in 1xPBS and 5% total DMSO: one containing 50 μM 34RH alone, one containing 1 μM of protein and 50 μM 34RH, and one containing 1 μM protein alone. For the 34RH containing samples, the compound was delivered from a 1 mM DMSO stock. These samples were then serially diluted two-fold from 50 μM 34RH to 1.56 μM 34RH. All samples for fluorescence measurements maintained a final 5% DMSO concentration.
(§3) The samples were incubated for at least 15 min before fluorescence was measured. The samples were excited at 274 nm, and the emission spectra were obtained from 285 to 340 nm using 5 nm excitation and 5 nm emission slits using a Horiba Fluoromax 4 fluorometer. The fluorescence data were background corrected using buffer (for samples with only protein) or small molecule (for samples containing protein and 34RH) (Figure S4). The absorbance due to 34RH and protein at the excitation and emission wavelengths can suppress the observed fluorescence intensity to give rise to the inner filter effect. To account for this suppression, we corrected the fluorescence signals using Equation (3). This correction accounted for the fluorescence suppression due to the absorbance of both 34RH and the protein [47]. (3) Fcorr=Fobs∗ 10^Aex+ Aem/2
(§4) Here, the corrected fluorescence is Fcorr, the background-subtracted observed fluorescence is Fobs, and Aex and Aem are the total absorbance at the excitation and emission wavelengths, respectively. The amount of protein fluorescence quenched by 34RH at a particular concentration was calculated using Fcorr at λ = 304 nm (Equation (4)). (4) Fraction Quenched=1−Fcorr304nm of Protein +34RH/ Fcorr304nm of Protein only
(§5) The quenching data were fit to a Langmuir binding isotherm using Equation (5), from which the dissociation constant (KD) was obtained. Here, Qmax describes the maximum fraction quenched, [L]T is the total 34RH concentration, and [P]T is the total protein concentration. The total concentration of the protein was 1 µM for all fluoresce experiments conducted at a constant protein concentration. (5) Fraction Quenched=Qmax∗([L]T+P]T+ KD−(L]T+P]T+ KD)^2−4 ∗ L]T ∗ P]T/2∗[L]T

P22 Max [2] = biological target: T2, P22 Max (Homo sapiens, UniProt P61244); test: Tyrosine fluorescence quenching titration; assay type: binding; settings: 1 µM P22 Max
T2 construct: 6xHis tag + TEV site (N, cleaved yes); made in house; host or cells: E. coli BL21(DE3) pLysS
T2 sequence (P61244 whole entry): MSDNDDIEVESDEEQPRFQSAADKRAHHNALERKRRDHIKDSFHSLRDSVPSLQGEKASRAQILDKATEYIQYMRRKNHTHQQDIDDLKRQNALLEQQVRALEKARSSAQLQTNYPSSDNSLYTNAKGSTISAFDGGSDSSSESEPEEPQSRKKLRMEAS
Description: as §1, §2, §3, §4, §5

[3] = Imide pKa determination by UV/Vis; assay type: physicochemical; settings: 1xPBS at various pH values; UV/Vis absorbance at 327 nm, 10 µM 34RH in 1xPBS; read-out: pKa of the imide group of the rhodanine heterocycle
Description: The imide pKa of 34RH was determined using UV/Vis by measuring the absorbance of 10 µM of 34RH in 1xPBS at various pH values using an Agilent 8453 UV/Vis spectrophotometer (Figure S2). The absorbance at 327 nm for each pH value was fit to a curve using the Henderson-Hasselbalch (shown in Equations (1) and (2)), where c is the pKa, x is the pH, a is the signal for the fully protonated acid, and b is the signal for the fully ionized base. (1) pKa−pH=log acid/base (2) y=a+b∗10^c−x/1+10^c−x

[4] = Dynamic light scattering (DLS) of 34RH; assay type: physicochemical; settings: for DLS correlation function (nano-sized particles): 1xPBS, 5% DMSO, pH 7.4
Description: The small molecule (Z)-4-((4-oxo-2-thioxothiazolidin-5-ylidene)methyl)benzoic acid (hereafter referred to as 34RH) was previously synthesized according to established procedures, and the structure was confirmed by ^1H and ^13C NMR (Figure S6) using a 400 MHz spectrometer. The dry compound was stored at 4 °C. Stock solutions (1 mM) of 34RH were made using either dimethyl sulfoxide (DMSO) or ethanol and stored at −20 °C. Fluorescence and dynamic light scattering (DLS) experiments were performed using DMSO, while circular dichroism (CD) was conducted using ethanol to avoid the high absorbance of DMSO at short wavelengths. DLS measurements were performed on 34RH using an LS Spectrophotometer (LS Instruments) at 25 °C (Figure S3). The dispersant viscosity was set for water. Samples were analyzed in 1xPBS (pH 7.4) and 5% total DMSO. The compound was serially diluted two-fold from 100 μM to a final concentration of 6.25 μM. Samples were placed into 5 mm cylindrical glass cuvettes (LS Instruments) and measured using a 600 nm laser at a 90° angle for 20 s. The data were analyzed using LS Spectrophotometer software provided by the manufacturer.

MaxRH = biological target: T3, MaxRH (Homo sapiens, UniProt P61244, K77E/M74V/Q72L/R75Q/R76A/Y73S); test: Circular dichroism with and without 34RH; settings: 1 µM MaxRH, 50 µM 34RH
T3 construct: 6xHis tag + TEV site (N, cleaved yes); made in house; host or cells: E. coli BL21(DE3) pLysS
T3 sequence (P61244 whole entry Q72L/Y73S/M74V/R75Q/R76A/K77E): as the sequence (P61244 whole entry) above, with Q72L, Y73S, M74V, R75Q, R76A, K77E counted along it
Description: (§6) Samples containing Myc353–437, Myc402–412 peptide, MaxRH, Max isoforms, or mutants in the absence and presence of excess concentrations of 34RH were prepared in 1xCD buffer (50 mM KF, 4.3 mM NaH2PO4, 1.4 mM KH2PO4, 5% ethanol). The pH of the buffer was adjusted to either 6 or 7.4 depending on the experiment conducted. The compound was delivered from a 1 mM ethanol stock solution. Samples were incubated for 1 hr before measurement. The far UV-spectra of the proteins and peptide were recorded in a quartz cuvette with a path length of 0.1 cm using a Jasco J720 spectropolarimeter. The samples were scanned from 270 to 195 nm with an increment of 1 nm, constant bandwidth of 10 nm, and a scanning speed of 1 nm per minute. After subtracting the buffer signal, the raw data in millidegrees was converted to mean residue ellipticity (MRE).

MaxRH-Y115F/Y123F = biological target: T4, MaxRH-Y115F/Y123F (Homo sapiens, UniProt P61244, K77E/M74V/Q72L/R75Q/R76A/Y115F/Y123F/Y73S); test: Circular dichroism with and without 34RH; settings: 1 µM MaxRH-Y115F/Y123F, 50 µM 34RH
T4 construct: 6xHis tag + TEV site (N, cleaved yes); made in house; host or cells: E. coli BL21(DE3) pLysS
T4 sequence (P61244 whole entry Q72L/Y73S/M74V/R75Q/R76A/K77E/Y115F/Y123F): as the sequence (P61244 whole entry) above, with Q72L, Y73S, M74V, R75Q, R76A, K77E, Y115F, Y123F counted along it
Description: as §6

Myc353–437 = biological target: T5, Myc353–437 (Homo sapiens, UniProt P01106); test: Circular dichroism with and without 34RH; settings: 2.5 µM Myc353–437, 50 µM 34RH
T5 construct: 6xHis tag + TEV site (N, cleaved yes); made in house; host or cells: E. coli BL21(DE3) pLysS
T5 sequence (P01106 368-452): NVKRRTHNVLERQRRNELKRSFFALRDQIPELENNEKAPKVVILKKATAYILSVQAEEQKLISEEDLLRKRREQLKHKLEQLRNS
Description: as §6

P21 Max [5] = biological target: T1, P21 Max; test: Circular dichroism with and without 34RH; settings: 4 µM P21 Max, 50 µM 34RH, pH 7.4
Description: as §6

P22 Max [6] = biological target: T2, P22 Max; test: Circular dichroism with and without 34RH; settings: 1 µM P22 Max, 50 µM 34RH, pH 7.4
Description: as §6

Myc402–412 peptide = biological target: T6, Myc402–412 peptide (Homo sapiens, UniProt P01106); test: Circular dichroism with and without small molecule; settings: 2.5 µM Myc402–412 peptide, 50 µM 34RH
T6 construct: purchased Genscript; host or cells: solid phase peptide synthesis
Description: as §6

T1 sequence (P61244 1-151 isoform P61244-2): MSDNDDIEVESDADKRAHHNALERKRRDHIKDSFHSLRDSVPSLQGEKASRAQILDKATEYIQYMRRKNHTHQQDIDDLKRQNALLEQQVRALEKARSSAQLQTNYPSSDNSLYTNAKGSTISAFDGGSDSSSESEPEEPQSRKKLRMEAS

## O=C1NC(=S)S/C1=C\c1ccc(C(=O)O)cc1 [34RH, (Z)-4-((4-oxo-2-thioxothiazolidin-5-ylidene)methyl)benzoic acid]
P21 Max [1]
  titratable tyrosine fluorescence quenching (binding): no titratable quenching
P22 Max [2]; pH 6 (monomeric)
  titratable tyrosine fluorescence quenching (binding): no titratable quenching
P22 Max [2]; pH 7.4
  titratable tyrosine fluorescence quenching (binding): does not exhibit titratable quenching
[3]
  pKa: 5.3 ± 0.3
[4]; 100 µM
  DLS correlation function (nano-sized particles): a correlation was observed
[4]; concentrations below 50 µM
  DLS correlation function (nano-sized particles): no correlation function
[4]; neutral pH
  solubility based on dynamic light scattering: good solubility
MaxRH; pH 6
  effect on conformation (CD): remaining disordered
MaxRH; pH 7.4
  effect on conformation (CD): did not change the conformation
MaxRH-Y115F/Y123F
  effect on conformation (CD): remains disordered
Myc353–437
  effect on average conformation (CD): did not substantially alter the average conformation
P21 Max [5]
  effect on CD spectrum: no indication of perturbation
P22 Max [6]
  effect on CD spectrum: does not alter the CD
Myc402–412 peptide
  effect on structural ensemble (CD): does not exhibit perturbations to the structural ensemble
